Measured values: article PMC4820820, “CETSA screening identifies known and novel thymidylate synthase inhibitors and slow intracellular activation of 5-fluorouracil” (Nature Communications, 2016)

Experiments:
TS [1] = target: T1, TS (Homo sapiens, UniProt P04818); experiment: TS enzyme inhibition assay; assay type: biochemical; design: His6 tag with TEV site (vector-encoded by pNIC28-Bsa4); made in house; host or cells: Rosetta BL21-DE3 Escherichia coli
Experimental: Enzymatic activity of recombinant human TS was measured spectrophotometrically at 340 nm by monitoring the absorbance change during the conversion of 5,10-methylenetetrahydrofolate to dihydrofolate using an Infinite M200 spectrometer (Tecan). Measurements were carried out at room temperature and in a buffer of 50 mM Tris at pH 7.5 and 150 mM NaCl. Initial velocities were measured with 250 nM of purified protein, 100 μM 5,10-methylenetetrahydrofolate and 100 μM dUMP in the presence of compounds using the same amount of DMSO as control. Initial rates and activity were analyzed with the software package Prism (GraphPad Software).
Decitabine at a concentration of 1 mM was incubated with 1 mg ml^−1 of recombinant DCK and 2.5 mM ATP in a buffer of 50 mM Tris at pH 7.5, 150 mM NaCl and 0.5 mM MgCl2 at room temperature for 60 min to generate the corresponding monophosphates. To probe for nucleotide deamination the samples were further treated with 1 mg ml^−1 of recombinant DCTD in the presence of 1 mM ATP and 10 μM ZnCl2 for 20 min at room temperature. After incubation, the samples were heated at 95 °C for 10 min and centrifuged for 10 min at the highest speed at 4 °C using a benchtop centrifuge. The supernatant was tested without dilution in thermal shift in vitro assays and the TS enzyme inhibition assay. The supernatants from samples without nucleoside were used as the treatment controls.
Target sequence in this assay (P04818 whole entry): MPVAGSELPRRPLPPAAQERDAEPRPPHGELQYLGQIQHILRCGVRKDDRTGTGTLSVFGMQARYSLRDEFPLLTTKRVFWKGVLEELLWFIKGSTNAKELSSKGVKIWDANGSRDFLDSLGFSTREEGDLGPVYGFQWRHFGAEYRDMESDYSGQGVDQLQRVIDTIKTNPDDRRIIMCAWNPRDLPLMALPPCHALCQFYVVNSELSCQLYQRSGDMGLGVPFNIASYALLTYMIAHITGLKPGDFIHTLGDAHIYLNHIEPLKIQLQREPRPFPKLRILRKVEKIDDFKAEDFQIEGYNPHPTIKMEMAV

TS [2] = target: T1, TS; experiment: Surface plasmon resonance; assay type: binding; design: His6 tag with TEV site (vector-encoded by pNIC28-Bsa4); made in house; host or cells: Rosetta BL21-DE3 Escherichia coli; details: 200 μM dUMP, 20 nM to 10 μM compound; signal does not saturate
Experimental: A concentration series (20 nM to 10 μM) of CBK115334 was injected over the prepared surface for 60 s and allowed to dissociate for 60 s with a flow rate of 70 μl min^−1 at 25 °C. The assay buffer was 20 mM HEPES, 150 mM NaCl, pH 7.5 and 0.005% Tween-20 supplemented with 1% DMSO and 200 μM dUMP. Response data was processed using the BIAevaluation software. Responses were double referenced and solvent-corrected. The data sets were fitted to 1:1 steady-state model for determination of binding constants.
Target sequence in this assay (P04818 whole entry): as above

TS [3] = target: T1, TS; experiment: Western blot ITDRF CETSA of decitabine with or without DCK inhibitor DI-82, K562 cells; assay type: cell-based; design: screening in live, non-engineered cells expressing thymidylate synthase; endogenous in cells; host or cells: K562 (human myelogenous leukemia) cells
Experimental: K562 cells were treated with each respective compound concentrations and one vehicle as control in 100 μl aliquots in 0.2 ml tubes for 2 h in an incubator at 37 °C and 5% CO2. The cell aliquots were heated at 50 °C and analyzed with western blot following the procedure described above.
For the decitabine metabolism, decitabine was serially diluted to generate an 11 point dose–response curve and an […] experiment was performed as described above in absence and presence of 200 μM of the DCK inhibitor DI-82 (referred to as 12R in the main text of the original publication and DI-82 in the Supplementary Material)[34].
NuPage Novex Bis-Tris 4–12% polyacrylamide gels with NuPAGE MES SDS running buffer (Life Technologies) were used for separation of proteins in the samples. Proteins were transferred to nitrocellulose membranes using the iBlot2 blotting system (Life Technologies). Primary antibodies anti-TS (D5B3) XP (Cell Signaling), anti-dCK (sc-393099), anti-β-actin (sc-69879); secondary goat anti-mouse HRP-IgG (sc-2055) and bovine anti-rabbit HRP-IgG (sc-2374) antibodies (Santa Cruz Biotechnology, Santa Cruz, CA, USA) were used for immunoblotting. […] Chemiluminescence intensities were detected and quantified using a ChemiDoc XRS+ imaging system (Bio-Rad) with Image Lab software (Bio-Rad).
Target sequence in this assay (P04818 2-313 limits assumed): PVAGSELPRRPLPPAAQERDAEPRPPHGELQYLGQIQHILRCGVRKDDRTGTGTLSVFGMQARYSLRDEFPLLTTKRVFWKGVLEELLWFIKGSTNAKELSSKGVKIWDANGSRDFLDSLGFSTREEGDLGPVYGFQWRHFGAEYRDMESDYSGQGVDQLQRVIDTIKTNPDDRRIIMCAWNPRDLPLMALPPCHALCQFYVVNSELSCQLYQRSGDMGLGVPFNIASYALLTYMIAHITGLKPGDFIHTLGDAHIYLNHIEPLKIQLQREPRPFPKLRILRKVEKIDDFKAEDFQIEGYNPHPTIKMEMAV

[4] = target: T2, human thymidylate synthase (TS) (Homo sapiens, UniProt P04818); experiment: ITDRF CETSA at 50 °C, AlphaScreen detection, live K562 cells; assay type: cell-based; details: 2 h preincubation, 50 °C, unit taken from curve axis log [cmp] (M), read-out: ITDRF CETSA (hit confirmation)
T2 construct: screening in live, non-engineered cells expressing thymidylate synthase; endogenous in cells; host or cells: K562 (human myelogenous leukemia) cells
Experimental: For the […] experiments 11-point dose-response curves with three-fold difference in concentration between wells were generated using the Bravo liquid handling system (all serial dilutions were done in 100% DMSO). […] The concentration of DMSO was 0.5% in all samples. […] The assay ready plates were prepared as outlined above for the screen.
The screen procedure started with the addition of 5 μl of a suspension of K562 cells at a density of 10 million cells per ml to all wells of a 384 well hardshell PCR plate (HSR480, BIORAD) using an electronic multichannel pipette (Biohit). […] For the time-course experiments the incubation times were altered to include also 10 min, 30 min and 6 h. […] After the incubation step the plates were transiently heated at 50 °C for 3 min followed by a controlled cooling to 20 °C for 1 min using a real-time PCR machine (LightCycler480 system, Roche). Plate handling was then as described above for the thermal aggregation experiments. The data were analyzed using microsoft excel and GraphPad Prism 6.
A calculation of the average and standard error of means for each set of controls also allowed an illustration of how these responses varied over the 32 screening plates. The Z′ factor[38] is commonly used as a measure of how well the assay separates between the controls and this was calculated as described based on the calculated averages and standard deviations of the controls on a per plate basis. For the Tagg shift and the […] experiments the data were analyzed in GraphPad Prism using the Boltzmann sigmoid equation and the saturation binding curve (rectangular hyperbola; binding isotherm) function, respectively. As already discussed[14] these methods make use of equilibrium models for data analysis although the methodology depends on the irreversible aggregation of denatured material. For this reason we refer to the observed responses as apparent and isothermal dose-response fingerprints and are careful with any quantitative interpretations, being well aware of their dependency on experimental conditions. Experiments are on-going to address the quantitative interpretation of CETSA data.

T2 sequence (P04818 2-313 limits assumed): as above

inhibition at 10 µM (TS [1]; 10 μM compound, read-out: inhibition of TS enzymatic activity) | inhibition of TS enzymatic activity (TS [1]; 100 μM compound) | binding to TS by surface plasmon resonance (steady state affinity) (TS [2]) | Structure (SMILES) | stabilization of TS (ITDRFCETSA) (TS [3]; in absence of DI-82, K562 cells) | ability to bind TS (ITDRFCETSA) (TS [3]; in presence of 200 μM DI-82, K562 cells) | inhibition in TS enzymatic assay (TS [1]; decitabine sample after DCK treatment) | inhibition in TS enzymatic assay (TS [1]; decitabine sample after treatment with both DCK and DCTD) | EC50 [4]
60% | near complete inhibition | low μM range | Cc1cc(O)nc2sc(C(=O)c3ccccc3)c(N)c12 [CBK115334, 3-amino-2-benzoyl-4-methylthieno(2,3-b)pyridin-6-ol] | – | – | – | – | –
– | – | – | Nc1ncn([C@H]2C[C@H](O)[C@@H](CO)O2)c(=O)n1 [decitabine, 5-Aza-deoxycytidine] | Dose-dependent stabilization | completely blunted | minor inhibition | near full inhibition | 6.87e-08 M
